The source of these data is patent publication US20210346383A1, “COMPOUNDS, COMPOSITIONS AND METHODS FOR TREATING OR PREVENTING HER-DRIVEN CANCERS” (Rain Therapeutics Inc., priority 2018, published 2021).

Structures are written as SMILES. Read-outs that look alike come from different tables or passages of the source.

Broadly, the IC50 is the concentration that gives 50% inhibition.

Data set [1] concerns H1975-luc human NSCLC cells, intracranial. The following applies: cited from earlier work.
For data set [2], the system named is CUTO-14 (EGFR A767_V769dupASV). Put plainly: cells. As to conditions: CUTO14, read-out: Cellular Anti-Proliferative Assay IC50.
The target in data set [3] is Ba/F3 cells expressing HER2 VC + C805S (VCCS) (Homo sapiens, UniProt P04626, DELINS776-776VC/C805S, cells depend on it). Put plainly: Ba/F3 growth inhibitory assay, HER2 exon 20 mutations. Type of data set: cell-based, murine. The following applies: read-out: IC50, growth inhibition.
Method: (§1) The murine pro-B cell line Ba/F3 (RCB0805) was obtained from RIKEN Bio Resource Center (Tsukuba, Japan). […] Several Ba/F3 lines which were established in the previous study were also used in this study.
(§2) Briefly, 2000 cells were seeded in each well of 96-well plates. Twenty-four hours later, DMSO or a TKI at indicated drug concentration were added, and the cells were cultured for additional 72 hours. A colorimetric assay was used to estimate the growth inhibition of each drug using the Cell Counting Kit-8 reagent (Dojindo Laboratories, Kumamoto, Japan). Each experiment was performed in triplicate.
(§3) HER2 A775_G776insYVMA, G776delinsVC, P780_Y781insGSP, YVMA+C805S (YVMACS) and VC+C805S (VCCS) mutations were introduced into Ba/F3 cells using retroviral vector.
Data set [4] concerns PC9 brain metastasis model. The following applies: cited from earlier work.
Data set [5] concerns the target Ba/F3 cells expressing HER2 G776delinsVC (Homo sapiens, UniProt P04626, DELINS776-776VC, cells depend on it). Put plainly: Ba/F3 growth inhibitory assay, HER2 exon 20 mutations. It is filed as cell-based, murine. The following applies: read-out: IC50, growth inhibition.
Method: as §1, §2, §3
Data set [6] deals with CUTO-17 (EGFR N771_H773dupNPH). Put plainly: cells. The following applies: CUTO17, read-out: Cellular Anti-Proliferative Assay IC50.
In data set [7] the target is Ba/F3 cells expressing HER2 YVMA + C805S (YVMACS) (Homo sapiens, UniProt P04626, DUP772-775/C805S, cells depend on it). Put plainly: Ba/F3 growth inhibitory assay, HER2 exon 20 mutations. Type of data set: cell-based, murine. As to conditions: read-out: IC50, growth inhibition.
Method: as §1, §2, §3
The subject of data set [8] is CUTO-18 (EGFR S768_D770dupSVD). Put plainly: cells. As to conditions: read-out: Cellular Anti-Proliferative Assay IC50.
Data set [9] concerns H-2170 (ERBB2 amplification). Put plainly: cells. It is filed as cell-based. As to conditions: Homo sapiens.
The test system of data set [10] is CALU-3 (ERBB2 amplification). Put plainly: cells. Type of data set: cell-based. The following applies: Homo sapiens.
For data set [11], the system named is H-1781 (ERBB2 p.G776Ins V_G/C). Put plainly: cells. Type of data set: cell-based.
The target in data set [12] is Ba/F3 cells expressing HER2 A775_G776insYVMA (Homo sapiens, UniProt P04626, DUP772-775, cells depend on it). Put plainly: Ba/F3 growth inhibitory assay, HER2 exon 20 mutations. It is filed as cell-based, murine. The following applies: read-out: IC50, growth inhibition.
Method: as §1, §2, §3
For data set [13], the target named is Ba/F3 cells expressing HER2 P780_Y781insGSP (Homo sapiens, UniProt P04626, DUP778-780, cells depend on it). The description is as above. It is filed as cell-based, murine. The following applies: read-out: IC50, growth inhibition.
Method: as §1, §2, §3
Data set [14] has as its target Ba/F3 cells expressing EGFR L858R (Homo sapiens, UniProt P00533, L858R, cells depend on it). Put plainly: Ba/F3 cell growth inhibition assay (Cell Counting Kit-8). Type of data set: cell-based, murine. The following applies: 72 hours, read-out: IC50, growth inhibition.
The target of data set [15] is Ba/F3 cells expressing EGFR Del 19 (Homo sapiens, UniProt P00533, DEL746-750, cells depend on it). Described as above. Type of data set: cell-based, murine. As to conditions: Ba/F3 EGFR Del 19; 72 hours; read-out: IC50, growth inhibition.
Data set [16] addresses Ba/F3 cells expressing EGFR L858R + C797S (Homo sapiens, UniProt P00533, C797S/L858R, cells depend on it). Described as above. As to conditions: 72 hours, read-out: IC50, growth inhibition. Type of data set: cell-based, murine.
Data set [17] concerns the target Ba/F3 cells expressing EGFR H773insH (Homo sapiens, UniProt P00533, DUP773-773, cells depend on it). The description is as above. As to conditions: 72 hours, read-out: IC50, growth inhibition. Type of data set: cell-based, murine.
In data set [18] the target is Ba/F3 cells expressing EGFR A763insFQEA (Homo sapiens, UniProt P00533, INS763FQEA, cells depend on it). Described as above. The following applies: 72 hours, read-out: IC50, growth inhibition. It is filed as cell-based, murine.
Data set [19] has as its target Ba/F3 cells expressing EGFR D770insSVD (Homo sapiens, UniProt P00533, DUP768-770, cells depend on it). The description is as above. Type of data set: cell-based, murine. The following applies: 72 hours, read-out: IC50, growth inhibition.
The target of data set [20] is Ba/F3 cells expressing EGFR L858R + T790M + C797S (Homo sapiens, UniProt P00533, T790M/C797S/L858R, cells depend on it). Described as above. Type of data set: cell-based, murine. As to conditions: 72 hours, read-out: IC50, growth inhibition.
Data set [21] has as its target Ba/F3 cells expressing EGFR V769insASV (Homo sapiens, UniProt P00533, DUP767-769, cells depend on it). The data set is described as above. It is filed as cell-based, murine. The following applies: 72 hours, read-out: IC50, growth inhibition.
Data set [22] addresses Ba/F3 cells expressing EGFR Del 19 + C797S (Homo sapiens, UniProt P00533, DEL746-750/C797S, cells depend on it). The data set is described as above. It is filed as cell-based, murine. As to conditions: Ba/F3 EGFR Del 19 + C797S; 72 hours; read-out: IC50, growth inhibition.
Data set [23] concerns the target Ba/F3 cells expressing EGFR Del 19 + T790M + C797S (Homo sapiens, UniProt P00533, DEL746-750/T790M/C797S, cells depend on it). The description is as above. It is filed as cell-based, murine. The following applies: Ba/F3 EGFR Del 19 + T790M + C797S; 72 hours; read-out: IC50, growth inhibition.
The target in data set [24] is Ba/F3 cells expressing EGFR H773insNPH (Homo sapiens, UniProt P00533, DUP771-773, cells depend on it). The description is as above. It is filed as cell-based, murine. The following applies: 72 hours, read-out: IC50, growth inhibition.
Where [25] appears, read: 10 mg/kg and 25 mg/kg once daily, 49-day treatment.

Chain of Ba/F3 cells expressing HER2 YVMA + C805S (YVMACS) (P04626 with tags, fused parts or gaps DUP772-775/C805S): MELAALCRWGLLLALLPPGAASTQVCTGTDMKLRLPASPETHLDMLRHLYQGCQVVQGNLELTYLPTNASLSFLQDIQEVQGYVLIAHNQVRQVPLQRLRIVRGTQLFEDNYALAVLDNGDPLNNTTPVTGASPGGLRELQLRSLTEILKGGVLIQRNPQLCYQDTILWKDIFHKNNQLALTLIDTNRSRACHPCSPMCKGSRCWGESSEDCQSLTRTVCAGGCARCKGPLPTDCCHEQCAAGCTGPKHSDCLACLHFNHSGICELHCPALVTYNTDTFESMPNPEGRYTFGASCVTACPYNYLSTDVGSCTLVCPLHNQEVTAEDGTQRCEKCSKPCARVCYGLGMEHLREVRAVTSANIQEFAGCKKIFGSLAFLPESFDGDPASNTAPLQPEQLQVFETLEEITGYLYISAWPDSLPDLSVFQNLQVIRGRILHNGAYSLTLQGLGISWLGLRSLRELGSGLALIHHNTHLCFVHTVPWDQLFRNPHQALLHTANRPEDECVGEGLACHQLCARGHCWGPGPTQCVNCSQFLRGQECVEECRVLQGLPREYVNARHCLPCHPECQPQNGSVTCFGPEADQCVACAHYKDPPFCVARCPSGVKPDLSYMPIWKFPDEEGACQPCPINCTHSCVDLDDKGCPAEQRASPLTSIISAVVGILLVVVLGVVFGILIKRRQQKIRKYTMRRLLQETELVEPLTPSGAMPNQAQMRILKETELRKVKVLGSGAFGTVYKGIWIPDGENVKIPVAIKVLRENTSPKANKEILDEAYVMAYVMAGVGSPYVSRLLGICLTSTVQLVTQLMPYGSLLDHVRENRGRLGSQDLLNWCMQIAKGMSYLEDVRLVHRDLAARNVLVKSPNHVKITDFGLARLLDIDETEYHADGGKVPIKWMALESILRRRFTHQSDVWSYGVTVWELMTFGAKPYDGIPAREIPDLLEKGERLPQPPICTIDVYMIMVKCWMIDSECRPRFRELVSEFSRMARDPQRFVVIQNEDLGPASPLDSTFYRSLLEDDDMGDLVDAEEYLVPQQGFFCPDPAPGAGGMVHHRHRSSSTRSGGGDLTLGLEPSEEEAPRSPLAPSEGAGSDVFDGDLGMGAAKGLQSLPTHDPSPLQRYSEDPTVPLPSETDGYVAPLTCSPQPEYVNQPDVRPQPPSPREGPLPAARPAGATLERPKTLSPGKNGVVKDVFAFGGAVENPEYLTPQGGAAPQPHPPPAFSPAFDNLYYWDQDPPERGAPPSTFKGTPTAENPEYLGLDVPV
Chain of Ba/F3 cells expressing HER2 P780_Y781insGSP (P04626 with tags, fused parts or gaps DUP778-780): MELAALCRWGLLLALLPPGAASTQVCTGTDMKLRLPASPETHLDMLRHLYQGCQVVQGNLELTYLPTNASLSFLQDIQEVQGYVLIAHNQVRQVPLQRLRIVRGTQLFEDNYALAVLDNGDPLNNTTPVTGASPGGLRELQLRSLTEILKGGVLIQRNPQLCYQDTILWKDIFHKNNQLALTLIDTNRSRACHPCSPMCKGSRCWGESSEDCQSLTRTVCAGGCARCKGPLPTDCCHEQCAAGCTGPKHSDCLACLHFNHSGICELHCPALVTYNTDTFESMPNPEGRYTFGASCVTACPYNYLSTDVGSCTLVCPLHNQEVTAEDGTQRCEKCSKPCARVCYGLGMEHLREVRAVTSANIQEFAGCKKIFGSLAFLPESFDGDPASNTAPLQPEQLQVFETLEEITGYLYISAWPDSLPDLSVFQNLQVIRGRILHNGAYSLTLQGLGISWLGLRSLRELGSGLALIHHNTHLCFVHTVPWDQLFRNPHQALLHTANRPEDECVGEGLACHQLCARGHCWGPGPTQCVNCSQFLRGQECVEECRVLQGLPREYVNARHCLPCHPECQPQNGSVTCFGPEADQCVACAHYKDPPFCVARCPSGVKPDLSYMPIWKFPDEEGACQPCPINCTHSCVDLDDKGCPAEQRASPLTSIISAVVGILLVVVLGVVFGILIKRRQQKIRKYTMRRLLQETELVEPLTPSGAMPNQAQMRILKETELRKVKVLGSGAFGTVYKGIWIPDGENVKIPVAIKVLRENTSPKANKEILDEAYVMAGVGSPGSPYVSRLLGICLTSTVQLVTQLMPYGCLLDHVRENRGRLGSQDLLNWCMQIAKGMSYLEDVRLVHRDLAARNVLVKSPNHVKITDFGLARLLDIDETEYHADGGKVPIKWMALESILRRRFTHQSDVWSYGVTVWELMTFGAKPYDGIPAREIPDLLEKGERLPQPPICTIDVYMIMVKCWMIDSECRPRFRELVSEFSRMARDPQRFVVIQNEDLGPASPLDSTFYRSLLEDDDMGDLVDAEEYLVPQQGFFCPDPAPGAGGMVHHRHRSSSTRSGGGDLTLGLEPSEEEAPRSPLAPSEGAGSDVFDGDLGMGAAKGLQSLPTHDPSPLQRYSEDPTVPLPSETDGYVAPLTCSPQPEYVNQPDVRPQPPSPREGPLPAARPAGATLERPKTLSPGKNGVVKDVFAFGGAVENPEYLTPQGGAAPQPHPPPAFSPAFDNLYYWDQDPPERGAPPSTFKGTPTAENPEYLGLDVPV
Chain of Ba/F3 cells expressing HER2 A775_G776insYVMA (P04626 with tags, fused parts or gaps DUP772-775): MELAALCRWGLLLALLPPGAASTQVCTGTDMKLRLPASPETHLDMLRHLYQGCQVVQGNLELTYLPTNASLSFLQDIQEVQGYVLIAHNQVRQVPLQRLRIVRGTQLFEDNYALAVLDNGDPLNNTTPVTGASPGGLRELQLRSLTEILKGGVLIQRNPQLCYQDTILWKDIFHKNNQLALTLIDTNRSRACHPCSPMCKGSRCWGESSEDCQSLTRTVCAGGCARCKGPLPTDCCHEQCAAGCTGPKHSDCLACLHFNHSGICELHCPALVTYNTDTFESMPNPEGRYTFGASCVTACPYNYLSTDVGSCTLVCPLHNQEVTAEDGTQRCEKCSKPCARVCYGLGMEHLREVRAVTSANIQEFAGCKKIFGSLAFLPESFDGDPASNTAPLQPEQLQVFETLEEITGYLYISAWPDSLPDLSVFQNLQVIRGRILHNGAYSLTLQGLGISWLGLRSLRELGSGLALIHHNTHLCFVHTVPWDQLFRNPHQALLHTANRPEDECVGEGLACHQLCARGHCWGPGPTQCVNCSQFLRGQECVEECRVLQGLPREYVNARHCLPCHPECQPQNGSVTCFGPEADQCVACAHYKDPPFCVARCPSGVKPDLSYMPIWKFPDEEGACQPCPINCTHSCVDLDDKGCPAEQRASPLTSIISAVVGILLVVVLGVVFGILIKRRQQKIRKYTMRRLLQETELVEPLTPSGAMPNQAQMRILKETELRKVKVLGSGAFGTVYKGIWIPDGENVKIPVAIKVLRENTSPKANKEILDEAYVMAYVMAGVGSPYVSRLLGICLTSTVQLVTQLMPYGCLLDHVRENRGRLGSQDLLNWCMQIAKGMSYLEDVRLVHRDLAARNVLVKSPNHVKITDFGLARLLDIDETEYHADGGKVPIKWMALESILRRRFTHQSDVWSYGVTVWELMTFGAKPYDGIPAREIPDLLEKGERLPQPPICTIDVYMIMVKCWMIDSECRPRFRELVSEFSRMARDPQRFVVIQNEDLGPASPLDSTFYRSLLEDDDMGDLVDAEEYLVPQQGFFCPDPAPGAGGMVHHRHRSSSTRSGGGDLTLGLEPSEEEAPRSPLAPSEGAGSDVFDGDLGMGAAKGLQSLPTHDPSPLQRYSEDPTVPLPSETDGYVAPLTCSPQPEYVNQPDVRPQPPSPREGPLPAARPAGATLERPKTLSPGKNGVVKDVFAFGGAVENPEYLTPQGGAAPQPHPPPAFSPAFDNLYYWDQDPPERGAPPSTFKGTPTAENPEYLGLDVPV
Chain of Ba/F3 cells expressing HER2 G776delinsVC (P04626 with tags, fused parts or gaps DELINS776-776VC): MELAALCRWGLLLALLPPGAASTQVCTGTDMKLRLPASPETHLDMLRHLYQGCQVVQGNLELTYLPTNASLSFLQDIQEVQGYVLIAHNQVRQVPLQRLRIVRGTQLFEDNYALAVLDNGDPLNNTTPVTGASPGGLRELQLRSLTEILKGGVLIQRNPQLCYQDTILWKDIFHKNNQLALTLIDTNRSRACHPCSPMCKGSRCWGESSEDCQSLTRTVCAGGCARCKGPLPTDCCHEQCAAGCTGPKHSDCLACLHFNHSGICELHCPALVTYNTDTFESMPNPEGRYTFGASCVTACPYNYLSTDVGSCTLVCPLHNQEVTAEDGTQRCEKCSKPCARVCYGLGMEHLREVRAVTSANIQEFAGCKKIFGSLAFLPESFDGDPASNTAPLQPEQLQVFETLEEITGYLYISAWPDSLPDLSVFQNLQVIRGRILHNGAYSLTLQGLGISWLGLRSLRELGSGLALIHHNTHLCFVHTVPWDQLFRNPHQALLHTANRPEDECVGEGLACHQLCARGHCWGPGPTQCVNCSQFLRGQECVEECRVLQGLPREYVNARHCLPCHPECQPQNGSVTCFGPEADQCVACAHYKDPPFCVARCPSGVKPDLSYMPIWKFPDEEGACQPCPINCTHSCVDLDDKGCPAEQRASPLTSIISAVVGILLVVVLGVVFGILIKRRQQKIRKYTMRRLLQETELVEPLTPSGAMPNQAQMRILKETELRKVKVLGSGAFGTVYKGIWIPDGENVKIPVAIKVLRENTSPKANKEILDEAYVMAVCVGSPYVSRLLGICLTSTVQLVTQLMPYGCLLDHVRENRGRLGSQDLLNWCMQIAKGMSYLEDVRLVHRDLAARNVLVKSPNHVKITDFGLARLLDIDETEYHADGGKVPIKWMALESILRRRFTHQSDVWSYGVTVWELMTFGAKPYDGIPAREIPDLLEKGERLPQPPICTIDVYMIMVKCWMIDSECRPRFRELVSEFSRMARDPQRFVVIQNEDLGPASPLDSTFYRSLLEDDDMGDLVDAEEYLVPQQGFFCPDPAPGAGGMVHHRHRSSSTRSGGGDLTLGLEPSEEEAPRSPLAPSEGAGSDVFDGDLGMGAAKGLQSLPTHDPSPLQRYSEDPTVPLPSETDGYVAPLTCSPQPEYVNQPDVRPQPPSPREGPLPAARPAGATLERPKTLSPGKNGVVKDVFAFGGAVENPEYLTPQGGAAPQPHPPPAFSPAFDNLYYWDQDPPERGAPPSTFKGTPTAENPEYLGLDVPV

Regarding `C=CC(=O)Nc1cc(Nc2nccc(-n3cc(CN(C)C)c(-c4ccccc4)n3)n2)c(OC)cc1N1CCOCC1` [YH25448], in [1] (setting [25]), the body weight entry was “no obvious loss of the body weight” and the “intracranial tumor growth inhibition vs osimertinib” value was “more effectively inhibited intracranial tumor growth than osimertinib”. Also, the intracranial tumor regression entry in data set [1] (H1975 xenograft model) is reported as “showed intracranial tumor regression”.
Regarding `C=CC(=O)Nc1cc(Nc2nccc(-c3cn(C)c4ccccc34)n2)c(OC)cc1N(C)CCN(C)C` [Osimertinib, N-(2-{2-dimethylaminoethyl-methylamino}-4-methoxy-5-{[4-(1-methylindol-3-yl)pyrimidin-2-yl]amino}phenyl)prop-2-enamide], the IC50 amounted to 303 nM in data set [2]; 426 ± 3 nM in data set [6]; 647 ± 3 nM in data set [8]; 113 nM in data set [9] (NCI-H2170, H-2170, ERBB2 amplification, normoxic conditions, read-out: Cellular Anti-Proliferative Assay IC50); 188 nM in data set [10] (CALU-3, ERBB2 amplification, normoxic conditions, read-out: Cellular Anti-Proliferative Assay IC50); 406 nM in data set [11] (NCI-H1781, H-1781, ERBB2 p.G776Ins V_G/C, normoxic conditions, read-out: Cellular Anti-Proliferative Assay IC50). Further, the GI50 in [3] was greater than 1000 nM; in data set [5], 7.23 nM; in data set [7], greater than 1000 nM; in data set [12] it was 68.3 nM; in data set [13] it was 88.5 nM. The tumor regression entry in data set [4] (5 mg/kg QD, first three weeks) is “caused tumor regression, which was more transient”; in data set [4] (25 mg/kg QD), “induced sustained tumor regression until study end at day 60”.
As for `CN(C)CC=CC(=O)Nc1cc2c(Nc3ccc(F)c(Cl)c3)ncnc2cc1O[C@H]1CCOC1` [Afatinib, N-[4-[(3-Chloro-4-fluorophenyl)amino]-7-[[(3S)-tetrahydro-3-furanyl]oxy]-6-quinazolinyl]-4(dimethylamino)-2-butenamide], the GI50 in [3] came out at 41.3 nM; in [5], 2.05 nM; in [7] it was 545 nM; in [12] it was 8.08 nM; in [13] it was 6.5 nM. Also, the IC50 came out at 11 nM in data set [9] (NCI-H2170, read-out: Cellular Anti-Proliferative Assay IC50); 31 nM in data set [10] (Calu-3, read-out: Cellular Anti-Proliferative Assay IC50); 66 nM in data set [11] (NCI-H1781, read-out: Cellular Anti-Proliferative Assay IC50).
For the compound `C=CC(=O)N1CCC(Oc2cc3c(Nc4ccc(Cl)c(Cl)c4F)ncnc3cc2OC)CC1` [Poziotinib], the GI50 was less than 0.457 nM in data set [14]; less than 0.457 nM in data set [15]; 7.1 nM in data set [16]; 22.8 nM in [17]; 0.7 nM in data set [18]; 27.9 nM in data set [3]. Moreover, the GI50 was 0.02 nM in [5]; 27.9 nM in data set [19]; greater than 1000 nM in [20]; 316 nM in data set [7]; 28 nM in data set [21]; 1.6 nM in data set [22]. Further, the GI50 in data set [12] is 0.64 nM; in data set [23], greater than 1000 nM; in data set [13], 1.03 nM; in data set [24], 2.2 nM.
